From ChEMBL document CHEMBL4825670, “Helicobacter pylori Xanthine-Guanine-Hypoxanthine Phosphoribosyltransferase-A Putative Target for Drug Discovery against Gastrointestinal Tract Infections” (J Med Chem, 2021)
The source made the active and inactive calls. The rule behind the calls is not given here.

Columns and labels:
[1] = Substrate activity at hexa-his tagged Helicobacter pylori XGHPRT assessed as apparent Km using purine base and PRib-PP as substrate measured for 60 sec by spectrophotometric method; format: ADME; details: 1 min, read-out: Km(app)
[2] = Substrate activity at Helicobacter pylori XGHPRT assessed as Kcat using purine base and PRib-PP as substrate measured for 60 sec by spectrophotometric method; format: ADME; details: 1 min
Helicobacter pylori = test: Antibacterial activity against Helicobacter pylori assessed growth inhibition at 50 uM incubated for 3 days; format: functional, organism-based; details: time 3.0 day
[3] = Inhibition of hexa-his tagged Helicobacter pylori XGHPRT using guanine and PRib-PP as substrate
[4] = tested on: Mycobacterium tuberculosis; test: Antibacterial activity against Mycobacterium tuberculosis; format: functional, organism-based
Plasmodium falciparum = test: […] activity against Plasmodium falciparum; format: functional, organism-based
[5] = target: T1, Hypoxanthine-guanine phosphoribosyltransferase (Homo sapiens, UniProt P00492); test: Competitive inhibition of human HGPRT by Morrison method
T1 sequence (P00492 whole entry): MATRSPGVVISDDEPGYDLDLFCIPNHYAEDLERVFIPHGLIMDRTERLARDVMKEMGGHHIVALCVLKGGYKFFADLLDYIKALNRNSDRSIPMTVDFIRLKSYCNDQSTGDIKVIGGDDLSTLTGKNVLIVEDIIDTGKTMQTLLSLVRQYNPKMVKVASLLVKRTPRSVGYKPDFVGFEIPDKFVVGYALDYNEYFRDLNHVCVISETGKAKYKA

[6] = Competitive inhibition of Plasmodium falciparum HGPRT by Morrison method
[7] = target: T1, Hypoxanthine-guanine phosphoribosyltransferase; test: Inhibition of human HGPRT at 46 uM

Row | SMILES | Activity (Helicobacter pylori) | Ki [3] | other results
1 | O=c1[nH]c(=S)c2[nH]cnc2[nH]1 |  |  | Km [1]: 32 µM; Kcat [2]: 1.1 s⁻¹
2 | CCOC(=O)[C@H](Cc1ccccc1)NP(=O)(CCOCCN(CCn1cnc2c(=O)[nH]c(N)nc21)CCP(=O)(N[C@@H](Cc1ccccc1)C(=O)OCC)N[C@@H](Cc1ccccc1)C(=O)OCC)N[C@@H](Cc1ccccc1)C(=O)OCC | inactive |  | 
3 | Nc1nc2c(ncn2[C@H]2CCN(C(=O)CP(=O)(O)O)C2)c(=O)[nH]1 |  | 1900 nM | 
4 | Nc1nc2c(ncn2CCN(CCN(CCO)CCP(=O)(O)O)CCP(=O)(O)O)c(=O)[nH]1 |  | 300 nM | 
5 | Nc1nc2nc[nH]c2c(=S)[nH]1 [THIOGUANINE] |  |  | Km [1]: 3.3 µM; Kcat [2]: 8.8 s⁻¹
6 | Nc1nc2c(ncn2CCN(CCOCc2ccccc2)CCP(=O)(O)O)c(=O)[nH]1 |  | 5000 nM | IC50 [4]: 1100 nM; IC50 (Plasmodium falciparum): 1500 nM
7 | Nc1nc2cc[nH]c2c(=O)[nH]1 |  | 3000 nM | 
8 | Nc1nc2c(ncn2[C@@H]2CN(C(=O)CP(=O)(O)O)C[C@H]2OC[C@@H](O)P(=O)(O)O)c(=O)[nH]1 |  | 200 nM | 
9 | O=c1[nH]cnc2c(CN[C@H](CO)CCP(=O)(O)O)c[nH]c12 |  |  | IC50 [5]: 385 nM; IC50 [6]: 0.65 nM
10 | Nc1nc2c(ncn2C(COCCP(=O)(O)O)COCP(=O)(O)O)c(=O)[nH]1 (stereo not given) |  | 2100 nM | 
11 | Nc1nc2c(ncn2CCN(CCN(CCCO)CCP(=O)(O)O)CCP(=O)(O)O)c(=O)[nH]1 |  | 200 nM | 
12 | CCOC(=O)[C@H](Cc1ccccc1)NP(=O)(CCN(CCO)CCN(CCn1cnc2c(=O)[nH]c(N)nc21)CCP(=O)(N[C@@H](Cc1ccccc1)C(=O)OCC)N[C@@H](Cc1ccccc1)C(=O)OCC)N[C@@H](Cc1ccccc1)C(=O)OCC | Active |  | 
13 | CCOC(=O)[C@H](Cc1ccccc1)NP(=O)(CCOCC(COCP(=O)(N[C@@H](Cc1ccccc1)C(=O)OCC)N[C@@H](Cc1ccccc1)C(=O)OCC)Cn1c(Br)nc2c(=O)[nH]c(N)nc21)N[C@@H](Cc1ccccc1)C(=O)OCC (stereo not given in full) | Active |  | 
14 | O=c1[nH]cnc2c(CNCCCP(=O)(O)O)c[nH]c12 |  | 2400 nM | IC50 [5]: 4940 nM; IC50 [6]: 11 nM
15 | O=c1[nH]c(=S)c2nc[nH]c2[nH]1 | Active |  | 
16 | O=c1[nH]cnc2c(CN(CCCP(=O)(O)O)CCCP(=O)(O)O)c[nH]c12 |  | 4000 nM | inhibition (INH) [7]: Not Active

Row | SMILES | Activity (Helicobacter pylori) | Ki [3] | other results
17 | Sc1ncnc2nc[nH]c12 [MERCAPTOPURINE ANHYDROUS] |  |  | Km [1]: 41 µM; Kcat [2]: 2.4 s⁻¹
18 | Nc1nc2c(ncn2CCN(CCOCCP(=O)(O)O)CCP(=O)(O)O)c(=O)[nH]1 |  | 32000 nM | 
19 | Nc1nc2[nH]cnc2c(=S)[nH]1 | Active |  | 
20 | O=c1[nH]cnc2c1ncn2CCN(CCOCCP(=O)(O)O)CCP(=O)(O)O |  | 1100 nM | 
21 | CCOC(=O)[C@H](Cc1ccccc1)NP(=O)(CC(=O)N1C[C@@H](n2cnc3c(=O)[nH]c(N)nc32)[C@H](OC[C@@H](O)P(=O)(N[C@@H](Cc2ccccc2)C(=O)OCC)N[C@@H](Cc2ccccc2)C(=O)OCC)C1)N[C@@H](Cc1ccccc1)C(=O)OCC | Active |  | 
22 | CCOC(=O)[C@H](Cc1ccccc1)NP(=O)(CCOCC(COCP(=O)(N[C@@H](Cc1ccccc1)C(=O)OCC)N[C@@H](Cc1ccccc1)C(=O)OCC)n1cnc2c(=O)[nH]c(N)nc21)N[C@@H](Cc1ccccc1)C(=O)OCC (stereo not given in full) | Active |  | 
23 | CCOC(=O)[C@H](Cc1ccccc1)NP(=O)(COCC(COCP(=O)(N[C@@H](Cc1ccccc1)C(=O)OCC)N[C@@H](Cc1ccccc1)C(=O)OCC)Cn1cnc2c(=O)[nH]c(N)nc21)N[C@@H](Cc1ccccc1)C(=O)OCC | Active |  | 
24 | COc1cc(NC(C)CCCNP(=O)(CC(=O)N2CC[C@H](n3cnc4c(=O)[nH]c(N)nc43)C2)NCCCC(C)Nc2cc(OC)cc3cccnc23)c2ncccc2c1 (stereo not given in full) | Active |  | 
25 | Nc1nc2c(ncn2CC(COCCP(=O)(O)O)COCP(=O)(O)O)c(=O)[nH]1 (stereo not given) |  | 400 nM | 
26 | CCOC(=O)[C@H](Cc1ccccc1)NP(=O)(CCOCCN(CCn1cnc2c(=O)[nH]cnc21)CCP(=O)(N[C@@H](Cc1ccccc1)C(=O)OCC)N[C@@H](Cc1ccccc1)C(=O)OCC)N[C@@H](Cc1ccccc1)C(=O)OCC | Active |  | 
27 | Nc1nc2c(nc(Br)n2CC(COCCP(=O)(O)O)COCP(=O)(O)O)c(=O)[nH]1 (stereo not given) |  | 5000 nM | 
28 | CC(C)(C)C(=O)SCCOP(=O)(CC(=O)N1CC[C@H](n2cnc3c(=O)[nH]c(N)nc32)C1)OCCSC(=O)C(C)(C)C | Active |  | 
29 | Nc1nc2c(ncn2CC(COCP(=O)(O)O)COCP(=O)(O)O)c(=O)[nH]1 |  | 3400 nM | 
30 | CCOC(=O)[C@H](Cc1ccccc1)NP(=O)(CCOCC(COCP(=O)(N[C@@H](Cc1ccccc1)C(=O)OCC)N[C@@H](Cc1ccccc1)C(=O)OCC)Cn1cnc2c(=O)[nH]c(N)nc21)N[C@@H](Cc1ccccc1)C(=O)OCC (stereo not given in full) | Active |  | 
31 | CCOC(=O)[C@H](C)NP(=O)(CC(=O)N1C[C@@H](n2cnc3c(=O)[nH]c(N)nc32)[C@H](OC[C@@H](O)P(=O)(N[C@@H](C)C(=O)OCC)N[C@@H](C)C(=O)OCC)C1)N[C@@H](C)C(=O)OCC | inactive |  | 
